# Test results as given in US11274097B2, “2-(het)aryl-substituted condensed bicyclic heterocycle derivatives as pest control agents” (BAYER CROPSCIENCE AKTIENGESELLSCHAFT, priority 2014, dated 2022).
# Like-named read-outs stand apart in the source and are kept apart here.
# How the values were obtained:
# [1] = system: Tetranychus urticae; experiment: Tetranychus urticae spray test, OP-resistant (TETRUR); assay type: in vivo; conditions: bean leaf discs, after 6 days
# Experimental: Tetranychus urticae—Spray Test, OP-Resistant (TETRUR)
# (§1) Solvent: 78.0 parts by weight of acetone • • 1.5 parts by weight of dimethylformamide
# (§2) Emulsifier: alkylaryl polyglycol ether
# (§3) To produce an appropriate active ingredient formulation, 1 part by weight of active ingredient is dissolved using the stated parts by weight of solvent and made up with water containing an emulsifier concentration of 1000 ppm until the desired concentration is attained. To produce further test concentrations, the preparation is diluted with emulsifier-containing water.
# Discs of bean leaves (Phaseolus vulgaris) infested by all stages of the greenhouse red spider mite (Tetranychus urticae) are sprayed with an active ingredient formulation of the desired concentration.
# After 6 days, the efficacy in % is determined. 100% means that all the spider mites have been killed; 0% means that none of the spider mites have been killed.
# [2] = log P by HPLC on a reversed-phase column (C 18), EEC Directive 79/831 Annex V.A8; assay type: physicochemical; conditions: for LOGP_NEUTRAL: pH 7.8, 0.001 molar aqueous ammonium hydrogencarbonate/acetonitrile; for chromatographic logP: reversed-phase HPLC column (C 18)
# Experimental: The log P values are measured according to EEC Directive 79/831 Annex V.A8 by HPLC (high-performance liquid chromatography) on a reversed-phase column (C 18). Temperature: 55° C. The LC-MS determination in the acidic range is effected at pH 2.7 using 0.1% aqueous formic acid and acetonitrile (contains 0.1% formic acid) as eluents, linear gradient from 10% acetonitrile to 95% acetonitrile. Called log P (HCOOH) in the table. LC-MS determination in the neutral range is effected at pH 7.8 with 0.001 molar aqueous ammonium hydrogencarbonate solution and acetonitrile as eluents; linear gradient from 10% acetonitrile to 95% acetonitrile. Called log P (neutral) in the table. Calibration is effected with unbranched alkan-2-ones (having 3 to 16 carbon atoms) with known log P values (log P values determined on the basis of the retention times by linear interpolation between two successive alkanone s).
# [3] = system: Myzus persicae; experiment: Myzus persicae spray test (MYZUPE), Chinese cabbage leaf discs; assay type: in vivo; conditions: after 6 days
# Experimental: Myzus persicae—Spray Test (MYZUPE)
# Solvent: 78 parts by weight of acetone • • 1.5 parts by weight of dimethylformamide
# Emulsifier: alkylaryl poly glycol ether
# as §3
# Discs of Chinese cabbage leaves (Brassica pekinensis) infested by all stages of the green peach aphid (Myzus persicae) are sprayed with an active ingredient formulation of the desired concentration.
# After 6 days, the efficacy in % is determined. 100% means that all the aphids have been killed; 0% means that none of the aphids have been killed.
# [4] = system: Phaedon cochleariae; experiment: Phaedon cochleariae spray test (PHAECO); assay type: in vivo; conditions: larvae, after 7 days
# Experimental: Phaedon cochleariae—Spray Test (PHAECO)
# as §1, §2, §3
# Discs of Chinese cabbage leaves (Brassica pekinensis) are sprayed with an active ingredient formulation of the desired concentration and, after drying, populated with larvae of the mustard beetle (Phaedon cochleariae).
# After 7 days, the efficacy in % is determined. 100% means that all the beetle larvae have been killed; 0% means that no beetle larvae have been killed.
# [5] = system: Spodoptera frugiperda; experiment: Spodoptera frugiperda spray test (SPODFR); assay type: in vivo; conditions: application rate 500 g/ha; maize leaf discs; after 7 days
# Experimental: Spodoptera frugiperda—Spray Test (SPODFR)
# as §1, §2, §3
# Leaf discs of maize (Zea mays) are sprayed with an active ingredient formulation of the desired concentration and, after drying, populated with caterpillars of the armyworm (Spodoptera frugiperda).
# After 7 days, the efficacy in % is determined. 100% means that all the caterpillars have been killed; 0% means that no caterpillars have been killed.
# [6] = acidic range, pH 2.7, 0.1% aqueous formic acid/acetonitrile, 55° C.
# [7] = neutral range, pH 7.8, read-out: log P (neutral)
SMILES,efficacy ([1]; application rate 500 g/ha) [%],"LOGP_HCOOH [2, 6]","LOGP_NEUTRAL ([2]; neutral range, 55° C.)",efficacy ([3]; application rate 500 g/ha) [%],efficacy ([4]; application rate 500 g/ha) [%],efficacy [5] [%],efficacy ([1]; application rate 100 g/ha) [%],"chromatographic logP [2, 7]","chromatographic logP ([2]; acidic range, pH 2.7, 0.1% aqueous formic acid/acetonitrile, 55° C., read-out: LOGP_HCOOH)",efficacy ([4]; application rate 100 g/ha) [%],efficacy ([3]; application rate 20 g/ha) [%]
CC[S+]([O-])c1ccccc1-c1nc2cc(C(F)(F)F)ncc2n1C (centres unmarked) [Example I-22],90,1.90,1.87,100,100,–,–,–,–,–,–
CC[S+]([O-])c1cccnc1-c1nc2cc(C(F)(F)C(F)(F)F)ncc2n1C (centres unmarked) [Example I-61],–,2.71,2.63,90,100,100,–,–,–,–,–
CCSc1cc(C(F)(F)F)cnc1-c1nc2cc(C(F)(F)F)ncc2n1C [Example I-2],90,3.52,3.48,–,100,100,–,–,–,–,–
CCS(=O)(=O)c1c(C(F)(F)F)ccnc1-c1nc2cc(C(F)(F)F)ncc2n1C [Example I-48],–,2.70,2.64,100,100,83,90,–,–,–,–
Cn1c(-c2ccc(F)cc2[S+](C)[O-])nc2cc(C(F)(F)F)ncc21 (centres unmarked) [Example I-12],–,1.88,1.83,90,100,–,–,–,–,–,–
CSc1cc(F)ccc1-c1nc2cc(C(F)(F)F)ncc2n1C [Example I-4],–,2.70,2.65,90,100,–,–,–,–,–,–
CC[S+]([O-])c1cc(C(F)(F)F)cnc1-c1nc2cc(C(F)(F)C(F)(F)F)ncc2n1C (centres unmarked) [Example I-63],–,3.75,3.62,–,83,100,–,–,–,–,–
CCS(=O)(=O)c1cc(Cl)ccc1-c1nc2cc(C(F)(F)F)ncc2n1C [Example I-43],–,2.69,2.61,100,100,–,–,–,–,–,–
CC[S+]([O-])c1c(C(F)(F)F)ccnc1-c1nc2cc(C(F)(F)F)ncc2n1C (centres unmarked) [Example I-51],–,2.48,–,90,100,–,–,–,–,–,–
CC[S+]([O-])c1cc(Cl)ccc1-c1nc2cc(C(F)(F)F)ncc2n1C (centres unmarked) [Example I-44],90,2.45,2.36,100,100,–,–,–,–,–,–
CC[S+]([O-])c1cc(C(F)(F)F)cnc1-c1nc2cc(C(F)(F)F)ncc2n1C (centres unmarked) [Example I-37],–,3.17,3.10,–,100,100,–,–,–,–,–
CCS(=O)(=O)c1ccc(OC)nc1-c1nc2cc(C(F)(F)F)ncc2n1C [Example I-45],–,2.53,–,90,100,–,–,–,–,–,–
CC[S+]([O-])c1ccc(Cl)cc1-c1nc2cc(C(F)(F)F)ncc2n1C (centres unmarked) [Example I-13],90,2.44,2.34,100,100,–,–,–,–,–,–
CCSc1ccc(NC(C)=O)nc1-c1nc2cc(C(F)(F)F)ncc2n1C [Example I-50],–,2.39,2.27,90,100,–,–,–,–,–,–
CC(C)Sc1cc(C(F)(F)F)cnc1-c1nc2cc(C(F)(F)F)ncc2n1C [Example I-41],–,3.80,3.73,–,100,–,–,–,–,–,–
CCS(=O)(=O)c1ccc(NC(C)=O)nc1-c1nc2cc(C(F)(F)F)ncc2n1C [Example I-49],–,2.05,1.99,90,100,–,–,–,–,–,–
Cn1c(-c2ncc(C(F)(F)F)cc2S(=O)(=O)CCF)nc2cc(C(F)(F)F)ncc21 [Example I-54],–,3.16,3.07,–,100,100,–,–,–,–,–

SMILES,efficacy ([1]; application rate 500 g/ha) [%],"LOGP_HCOOH [2, 6]","LOGP_NEUTRAL ([2]; neutral range, 55° C.)",efficacy ([3]; application rate 500 g/ha) [%],efficacy ([4]; application rate 500 g/ha) [%],efficacy [5] [%],efficacy ([1]; application rate 100 g/ha) [%],"chromatographic logP [2, 7]","chromatographic logP ([2]; acidic range, pH 2.7, 0.1% aqueous formic acid/acetonitrile, 55° C., read-out: LOGP_HCOOH)",efficacy ([4]; application rate 100 g/ha) [%],efficacy ([3]; application rate 20 g/ha) [%]
CCS(=O)(=O)c1cc(C(F)(F)F)cnc1-c1nc2cc(Cl)ncc2n1C [Example I-52],–,2.61,2.51,100,100,–,–,–,–,–,–
CCSc1cccnc1-c1nc2cc(C(F)(F)F)ncc2n1C [Example I-24],–,2.39,2.32,100,100,–,–,–,–,–,–
"Cn1c(-c2ncc(C(F)(F)F)cc2S(C)(=O)=O)nc2cc(C(F)(F)F)ncc21 [Example I-36, 3-Methyl-2-[3-(methylsulphonyl)-5-(trifluoromethyl)pyridin-2-yl]-6-(trifluoromethyl)-3H-imidazo[4,5-c]pyridine]",–,2.67,2.64,–,100,–,–,2.64,–,–,–
CCS(=O)(=O)c1cc(C(N)=O)cnc1-c1nc2cc(C(F)(F)F)ncc2n1C [Example I-56],–,1.61,1.56,90,–,–,–,–,–,–,–
"Cn1c(-c2ncc(C(F)(F)F)cc2[S+](C)[O-])nc2cc(C(F)(F)F)ncc21 (centres unmarked) [Example I-26, 3-methyl-2-[3-(methylsulphinyl)-5-(trifluoromethyl)pyridin-2-yl]-6-(trifluoro-methyl)-3H-imidazo[4,5-c]pyridine]",–,–,2.76,–,100,100,–,2.76,2.81,–,–
CCSc1ccc(OC)nc1-c1nc2cc(C(F)(F)F)ncc2n1C [Example I-53],90,3.12,–,–,100,–,–,–,–,–,–
CCSc1cccnc1-c1nc2cc(C(F)(F)C(F)(F)F)ncc2n1C [Example I-46],–,2.98,2.92,90,100,100,–,–,–,–,–
Cn1c(-c2ccc(C(F)(F)F)cc2[S+](C)[O-])nc2cc(C(F)(F)F)ncc21 (centres unmarked) [Example I-30],–,2.41,2.36,–,83,–,–,–,–,–,–
CCSc1cc(C(F)(F)F)cnc1-c1nc2cc(C(F)(F)C(F)(F)F)ncc2n1C [Example I-47],–,4.10,4.02,–,100,100,–,–,–,–,–
CCSc1cc(C(F)(F)F)cnc1-c1nc2nc(C(F)(F)F)ncc2n1C [Example I-28],90,3.29,3.22,–,100,–,–,–,–,–,–
CCSc1cc(C(F)(F)F)cnc1-c1nc2cc(Cl)ncc2n1C [Example I-55],–,3.12,3.01,–,100,–,–,–,–,–,–
Cn1c(-c2ccc(Cl)cc2[S+](C)[O-])nc2cc(C(F)(F)F)ncc21 (centres unmarked) [Example I-10],–,2.15,2.08,100,100,–,–,–,–,–,–
CCSc1ccccc1-c1nc2cc(C(F)(F)F)ncc2n1C [Example I-17],–,2.94,2.87,90,–,–,–,–,–,83,–
CCSCCSc1cc(C(F)(F)F)cnc1-c1nc2cc(C(F)(F)F)ncc2n1C [Example I-23],–,4.02,3.96,100,–,–,–,–,–,–,–
CCC[S+]([O-])c1cc(C(F)(F)F)cnc1-c1nc2cc(C(F)(F)F)ncc2n1C (centres unmarked) [Example I-39],–,3.52,3.45,–,100,100,–,–,–,–,90
CCS(=O)(=O)c1ccc(Cl)cc1-c1nc2cc(C(F)(F)F)ncc2n1C [Example I-38],–,2.68,2.63,90,100,–,–,–,–,–,–
